{"source": "patent US20040109825A1", "about": "“Topical patch preparation kit containing a delayed-type hypersensitivity inducer” (priority 2002, published 2004)", "key": {"[1]": {"assay": "Stability of DNCB in a dissolved state", "assay_type": "physicochemical", "conditions": "even more unstable at high temperatures"}, "[2]": {"conditions": "cited from earlier work"}}, "data": [{"smiles": "O=[N+]([O-])c1ccc(Cl)c([N+](=O)[O-])c1", "note": "[DNCB, 1-chloro-2,4-dinitrobenzene]", "values": [{"measurement": "stability in a dissolved state", "setting": "[1]", "value": "unstable in a dissolved state"}, {"measurement": "adverse events of DNCB", "setting": "[2]; reports to date", "value": "have not been any reports to date of cases of life-threatening adverse events"}, {"measurement": "carcinogenicity", "setting": "[2]; research conducted in the 1950s in the United States", "value": "not carcinogenic"}]}]}
